{"source": "patent US20260115173A1", "about": "(University of Houston System, priority 2022, published 2026)", "key": {"[1]": {"system": "rats", "settings": "rat, in vivo; cited from earlier work"}, "[2]": {"system": "male or female rats", "settings": "cited from earlier work"}, "[3]": {"system": "mice of both sexes", "settings": "cited from earlier work"}, "[4]": {"target": "T1, delta opioid receptors (Mus musculus, UniProt P32300)", "T1 construct": "endogenous in cells; host or cells: NG108-15", "T1 sequence (P32300 whole entry)": "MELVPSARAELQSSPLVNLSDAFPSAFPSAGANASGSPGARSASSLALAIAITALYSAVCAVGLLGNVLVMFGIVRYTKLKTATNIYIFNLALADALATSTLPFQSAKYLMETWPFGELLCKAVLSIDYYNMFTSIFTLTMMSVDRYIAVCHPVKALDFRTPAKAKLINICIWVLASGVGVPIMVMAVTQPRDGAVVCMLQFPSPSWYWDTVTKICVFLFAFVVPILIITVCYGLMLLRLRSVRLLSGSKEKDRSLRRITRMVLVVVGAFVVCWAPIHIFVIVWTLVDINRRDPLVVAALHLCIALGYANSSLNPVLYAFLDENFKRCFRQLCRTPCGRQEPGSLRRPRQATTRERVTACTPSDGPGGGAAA", "settings": "NG108-15 cells; effect blocked by naloxone; cited from earlier work"}, "[5]": {"target": "T2, delta opioid receptors (Homo sapiens, UniProt P41143)", "T2 sequence (P41143 whole entry)": "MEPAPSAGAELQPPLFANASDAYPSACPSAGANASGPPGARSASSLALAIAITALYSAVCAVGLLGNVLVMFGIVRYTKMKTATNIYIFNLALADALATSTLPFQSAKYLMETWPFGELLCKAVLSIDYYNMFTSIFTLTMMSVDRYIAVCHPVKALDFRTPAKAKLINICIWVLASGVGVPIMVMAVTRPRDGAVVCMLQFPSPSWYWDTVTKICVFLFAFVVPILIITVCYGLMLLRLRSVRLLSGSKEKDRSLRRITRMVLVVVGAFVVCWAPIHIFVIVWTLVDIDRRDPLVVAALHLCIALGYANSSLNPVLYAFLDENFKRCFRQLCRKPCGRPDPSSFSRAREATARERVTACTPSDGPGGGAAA", "settings": "cited from earlier work"}, "[6]": {"system": "female Sprague Dawley rats", "assay": "Operant alcohol (10%) self-administration, FR2 schedule, 60-min sessions", "assay_type": "in vivo, rat", "settings": "for Active lever presses, post-hoc comparison with vehicle / Estimated total alcohol intake, post-hoc comparison with vehicle / Number of head entries, comparison with vehicle / Number of reinforcers earned, post-hoc comparison with vehicle: 0.3, 1.0, 3.0 mg/kg IP vs vehicle, decrease, Tukey's test", "description": "(§1) Animals. A total of 10 female Sprague Dawley rats (Charles River, Wilmington, MA) were used for the alcohol self-administration studies. […] These same rats were used in the cFos immunohistochemistry study. Rats were initially housed 3-5 to a cage in polypropylene cages housed in circular towers (Animal Care Systems, Inc, Centennial, CO) located within a temperature- and humidity-controlled vivarium that was maintained on a 12:12 light/dark cycle (lights on at 6 AM). Rats weighed about 250-350 gm at the start of the experiment and were at least 100 days old. Food and water were available ad libitum throughout the study. To facilitate alcohol self-administration rats were exposed to alcohol in vapor chambers (La Jolla Alcohol Research, La Jolla, CA) for 6-weeks prior to operant training using a chronic intermittent alcohol exposure (i.e., alcohol vapors were on for 14-h and off for 10-h, 5 days per week).\nDrugs. Alcohol (ethyl alcohol, 190 Proof, USP grade, Koptec, King of Prussia, PA) was diluted to 10% (with RO water, w/v) and made available for consumption via standard operant chambers (described below). MG (Cayman Chemical, Ann Arbor, MI) was prepared in 20% Tween 80 (Sigma Aldrich, St. Louis, MO) in 80% sterile saline (0.9% NaCl). […] Each dose of test drug was administered via intraperitoneal (IP) injection.\nOperant self-administration training and testing. Training sessions (60 min) began with the illumination of the house light and, initially, two non-contingent dipper presentations (primes) for 10 sec. The dipper access light was illuminated for the entire length of the dipper presentation time. […] When the rat pressed the active lever, the house light would turn off, dipper would protrude, and the access area light and the triple cue light above both of the levers went off. […] Stable response levels under the FR2 schedule (≤20% variability over 2 consecutive days) under 3 second dipper presentation time were required for the animal to move into the testing phase. Test sessions (60 min) were conducted once a rat met stable lever pressing criteria. Each dose of test drug and vehicle was administered (IP) 30 minutes prior to the test session in a randomized order across rats with at least 4-7 days intervening between dose administrations.\nResponses obtained from the test sessions included two measures of appetitive responding (numbers of active lever presses and head entries) and two measures of consummatory responding (numbers of reinforcers earned and estimated amount of alcohol consumed in g/kg). Estimates of the amount of alcohol delivered were derived by multiplying the number of reinforcers earned by the amount of alcohol (g) per delivery (0.1 mL) of the 10% solution and divided by body weight.\nStatistical Analysis. The self-administration data were analyzed with ANOVAs to compare the two measures of appetitive responding (numbers of active lever presses and head entries) and the two measures of consummatory responding (numbers of reinforcers earned and estimated total alcohol intake in g/kg).\n(§2) Significant main effects were followed by Tukey's multiple comparisons test. Comparisons with p-values less than 0.05 were considered significant and those less than 0.10 were considered a trend towards significance."}, "[7]": {"target": "T2, delta opioid receptors", "settings": "cited from earlier work", "remark": "listed apart in the source"}, "[8]": {"system": "rats", "settings": "cited from earlier work"}, "[9]": {"system": "male Sprague Dawley rats", "settings": "cited from earlier work"}, "[10]": {"system": "mice", "settings": "i.p., cited from earlier work"}, "[11]": {"settings": "15-30 mg/kg; cited from earlier work"}, "[12]": {"system": "cFos", "assay": "Immunohistochemistry: cFos activation in brain areas", "assay_type": "in vivo, rat", "settings": "3 mg/kg IP, 90 min after open field test, vs control", "description": "as §1"}, "[13]": {"system": "male rats", "settings": "male Sprague Dawley rats, 10-30 mg/kg ip vs 1, 5, 10 mg/kg i.p.; cited from earlier work"}, "[14]": {"settings": "15-30 mg/kg; cited from earlier work", "remark": "listed apart in the source"}, "[15]": {"system": "female Sprague Dawley rats", "assay": "Open field test - locomotor activity", "assay_type": "in vivo, rat", "settings": "N=4/group; for Distance traveled over 5-min time blocks: 3 mg/kg IP 30 min before 30-min test, vs control; for Total distance traveled over entire 30-min session: 3 mg/kg IP 30 min before test", "description": "as §1\nOpen Field Test-Locomotor Activity. […] Drugs were administered 30 minutes before rats were placed into the open field chambers and distance traveled (cm) was tabulated in 5-min blocks across the 30-minute test.\nDistance traveled over time was analyzed using a 4×6 repeated measures ANOVA with time (six 5-min blocks) as the repeating measure. Another ANOVA was conducted that included all three Drug conditions (MG, NTX, and MG+NTX).\nas §2"}, "[16]": {"settings": "NTX 1 mg/kg; cited from earlier work"}, "[17]": {"system": "female Sprague Dawley rats", "settings": "10 mg/kg (highest dose), progressive ratio schedule; cited from earlier work"}, "[18]": {"system": "cFos", "settings": "2 mg/kg, i.p.; cited from earlier work"}}, "note": "Entries after “also recorded” stand apart in the source; their conditions may differ. Where two headings read alike, the source gives them in different places.", "data": [{"molecule": "CC[C@@H]1CN2CC[C@@]3(O)C(=Nc4cccc(OC)c43)[C@@H]2C[C@@H]1/C(=C\\OC)C(=O)OC", "note": "[7-HMG, 7-hydroxymitragynine, reference compound]", "values": [{"measurement": "Self-administration by rats", "setting": "[1]", "result": "readily self-administered by rats"}, {"measurement": "Abuse liability in ICSS", "setting": "[2]; rat, in vivo", "result": "abuse liability was not shown in ICSS"}, {"measurement": "Alcohol consumption", "setting": "[3]; dose not given", "result": "significantly reduced alcohol consumption as did 7-HMG"}]}, {"molecule": "CC[C@@H]1CN2CCc3c([nH]c4cccc(OC)c34)[C@@H]2C[C@@H]1/C(=C\\OC)C(=O)OC", "note": "[MG, mitragynine]", "values": [{"measurement": "Inhibition of forskolin-stimulated cAMP", "setting": "[4]", "result": "inhibits forskolin-stimulated CAMP in a concentration manner"}, {"measurement": "Binding", "setting": "[5]", "result": "very low binding to delta opioid receptors"}, {"measurement": "Active lever presses, post-hoc comparison with vehicle", "setting": "[6]", "result": "significant differences in active lever presses between vehicle and 1.0 (P<0.01) and 3.0 mg/kg (P<0.0001)"}, {"measurement": "Estimated total alcohol intake, post-hoc comparison with vehicle", "setting": "[6]", "result": "significant differences between vehicle and 1.0 (P<0.01) and 3.0 mg/kg (P<0.001)"}, {"measurement": "Number of head entries, comparison with vehicle", "setting": "[6]", "result": "significant differences between vehicle and 1.0 (P<0.01) and 3.0 mg/kg (P<0.01)"}, {"measurement": "Number of reinforcers earned, post-hoc comparison with vehicle", "setting": "[6]", "result": "significant differences between vehicle compared to 1.0 (P<0.05) and 3.0 mg/kg (P<0.0001)"}, {"measurement": "All alcohol self-administration measures (lever presses, head entries, reinforcers, alcohol consumed)", "setting": "[6]; 0.3-3.0 mg/kg IP", "result": "All measures were significantly decreased"}, {"measurement": "Alcohol self-administration overall, relative efficacy of drug conditions", "setting": "[6]; 0.3-3.0 mg/kg IP, combination vs single drugs", "result": "more significant effects on all four measures of alcohol self-administration than NTX"}, {"measurement": "Active lever presses, direct comparison between drug conditions", "setting": "[6]; MG vs NTX vs MG+NTX at equal doses, 3x4 ANOVA, post-hoc", "result": "trend for a greater effect of MG on active lever presses at the 3 mg/kg dose"}, {"measurement": "Activity at receptor", "setting": "[7]", "result": "has activity at delta opioid receptors"}, {"measurement": "Self-administration when substituted for morphine", "setting": "[8]; broad range of doses, rats trained to self-administer (i.v.) morphine", "result": "did not support self-administration"}, {"measurement": "i.v. morphine self-administration after prior exposure", "setting": "[8]; prior exposure", "result": "decreases i.v. morphine self-administration"}, {"measurement": "Heroin self-administration", "setting": "[9]; 3.0 mg/kg", "result": "decreased heroin self-administration"}, {"measurement": "Responding when substituted for heroin", "setting": "[9]; 0.03-3.0 mg/kg", "result": "did not maintain responding above saline levels"}, {"measurement": "Spontaneous locomotor activity", "setting": "[10]; 5-30 mg/kg", "result": "no effect on spontaneous locomotor activity"}, {"measurement": "Activity", "setting": "[10]; male mice, 5, 10, 15 mg/kg", "result": "significant decrease in activity"}, {"measurement": "Rewarding effect in ICSS", "setting": "[2]; 3.2-56 mg/kg", "result": "did not find evidence that MG (3.2-56 mg/kg) was rewarding"}, {"measurement": "Alcohol consumption", "setting": "[3]; 30 and 100 mg/kg, i.p.", "result": "significantly reduced alcohol consumption"}, {"measurement": "Place conditioning", "setting": "[11]", "result": "induce place conditioning"}, {"measurement": "Number of cFos positive neurons in dorsal striatum", "setting": "[12]", "result": "did not differ from the control group"}, {"measurement": "Locomotor activity", "setting": "[13]", "result": "higher doses (10-30 mg/kg, ip) of MG but not lower doses (1, 5, 10 mg/kg, i.p.) increase locomotor activity"}, {"measurement": "Substitution for morphine in drug discrimination tests", "setting": "[14]", "result": "partially substitute for morphine"}, {"measurement": "Distance traveled over 5-min time blocks", "setting": "[15]", "result": "tend to increase locomotor activity"}, {"measurement": "Total distance traveled over entire 30-min session", "setting": "[15]", "result": "did not differ between groups"}, {"measurement": "Decrease of schedule-controlled responding by MG in presence of NTX", "setting": "[16]", "result": "did not block MG's ability to decrease schedule-controlled responding"}]}, {"molecule": "O=C1CC[C@@]2(O)[C@H]3Cc4ccc(O)c5c4[C@@]2(CCN3CC2CC2)[C@H]1O5", "note": "[NTX, naltrexone, reference compound]", "values": [{"measurement": "Active lever presses, post-hoc comparison with vehicle", "setting": "[6]", "result": "significant differences in active lever presses between vehicle and 1.0 (P<0.05) and 3.0 mg/kg (P<0.05)"}, {"measurement": "Estimated total alcohol intake, post-hoc comparison with vehicle", "setting": "[6]", "result": "significant differences between vehicle and 1.0 (P<0.05) and 3.0 mg/kg (P<0.05)"}, {"measurement": "Number of head entries, comparison with vehicle", "setting": "[6]", "result": "trend towards a main effect for Dose"}, {"measurement": "Number of reinforcers earned, post-hoc comparison with vehicle", "setting": "[6]", "result": "significant differences between vehicle compared to 1.0 (P<0.05) and 3.0 mg/kg (P<0.05)"}, {"measurement": "All alcohol self-administration measures (lever presses, head entries, reinforcers, alcohol consumed)", "setting": "[6]; 0.3-3.0 mg/kg IP", "result": "All measures were significantly decreased by naltrexone except for head entries that showed a trend towards significance"}, {"measurement": "Active lever presses, reinforcers earned, head entries", "setting": "[17]", "result": "decreased active lever presses, reinforcers earned but not head entries"}, {"measurement": "Number of cFos positive neurons in dorsal striatum", "setting": "[12]", "result": "did not differ from the control group"}, {"measurement": "Number of cFos positive neurons in nucleus accumbens (NAC)", "setting": "[12]", "result": "significant difference between control and NTX (P=0.002); also recorded: increased cFos levels to a similar degree to that of MG and NTX combined"}, {"measurement": "Distance traveled over 5-min time blocks", "setting": "[15]", "result": "tend to increase locomotor activity"}, {"measurement": "Total distance traveled over entire 30-min session", "setting": "[15]", "result": "did not differ between groups"}, {"measurement": "cFos expression", "setting": "[18]", "result": "increases cFos expression in several brain areas including the NAC"}]}]}
